As usually defined, the IC50 is the concentration needed to halve the response being measured. Broadly, the EC50 is the concentration that produces a half-maximal response. A higher EC50 goes with a less potent agent.

In patent US11739089B2, “Acetamido-phenyltetrazole derivatives and methods of using the same” (Athenex, Inc., priority 2020, dated 2023) one finds IC50 and EC50 data, which are given here for 17 molecules.

Where two headings read alike, the source gives them in different places.

In data set [1] the target is CYP3A4 (Homo sapiens (Human), UniProt P08684). Briefly: CYP3A4 inhibitory activity: Luciferin-IPA (P450-Glo) assay with human liver microsome. As for the experimental part: Cytochrome P450 activity may be determined by a P450-Glo™ assay (Promega) with human liver microsomes wherein the compounds of the present disclosure are dosed at different concentrations in buffer and incubated. Dose-response curve and IC50 data may be obtained and fit to a nonlinear regression model using GraphPad Prism software (v6.0).
Sequence of CYP3A4 (P08684 whole entry): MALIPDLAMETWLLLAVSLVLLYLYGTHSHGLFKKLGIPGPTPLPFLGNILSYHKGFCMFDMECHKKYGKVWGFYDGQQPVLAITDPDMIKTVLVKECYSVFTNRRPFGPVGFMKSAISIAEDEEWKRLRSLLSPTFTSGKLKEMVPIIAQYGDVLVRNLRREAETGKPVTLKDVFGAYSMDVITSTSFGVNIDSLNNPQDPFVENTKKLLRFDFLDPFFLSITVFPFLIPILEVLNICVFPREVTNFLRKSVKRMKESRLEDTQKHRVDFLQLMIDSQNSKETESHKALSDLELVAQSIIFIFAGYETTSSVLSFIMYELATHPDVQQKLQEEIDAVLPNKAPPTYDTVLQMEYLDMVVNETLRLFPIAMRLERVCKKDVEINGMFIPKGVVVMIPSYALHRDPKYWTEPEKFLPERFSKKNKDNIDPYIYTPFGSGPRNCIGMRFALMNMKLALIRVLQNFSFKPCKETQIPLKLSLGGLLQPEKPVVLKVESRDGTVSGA
The standard final Compound concentrations were 37, 111, 333, 1000, and 3000 nM. 12.5 μL of the Compound dilutions were transferred to a white 96-well plate. 1450 μL (enough for a whole plate) of 4× assay buffer (400 mM potassium phosphate buffer (10 mL 1M potassium phosphate buffer: 8.02 mL 1M K2HPO4+1.98 mL 1M KH2PO4 (1.4 g K2HPO4+0.27 g KH2PO4 in 10 mL H2O), 32 μM Luciferin-IPA (Promega V9002)) 580 μl of 1 M K3PO4 buffer, 870 μL H2O, 14 μL of 3 mM Luciferin-IPA, and 18 μL of human liver microsome (Sigma M0317-1VL) was made. 12.5 μL of 4× assay buffer was added to each well. For the well of blank control, 12.5 μL of 4× assay buffer without liver microsome was added. The plate was incubated at room temperature for 15 minutes. 2.75 mL NADPH buffer was made as follows: 2.42 mL H2O, 275 μL solution A and 55 μL solution B (NADPH regeneration system, Promega V9510). 25 μL of the buffer was added to each well. The plates were incubated at 37° C. for 11 minutes. 50 μL of luciferin detection reagent (Promega V9002) was added and the plates were incubated at room temperature for 5 minutes. The plate was read with a luminometer.
The dose-response curve and IC50 were obtained by fitting data to nonlinear regression model using GraphPad Prism software (v6.0).

Data set [2] has as its target P-glycoprotein (Homo sapiens (Human), UniProt P08183). Kind of data set: P-glycoprotein inhibitory activity: MTT cell growth assay in P-gp overexpressing MES-SA/DX5 cells with docetaxel or paclitaxel. The class given is cell-based. The conditions noted are these: 3 days, with 100 nM docetaxel or 200 nM paclitaxel, MTT readout. How it is done: P-glycoprotein inhibitory activity may be determined by an assay wherein P-glycoprotein overexpressed cell lines are treated with increasing concentrations of a compound of the present disclosure and therapeutic agent for three days, followed by an MTT assay.
Cell growth percentage may be calculated with the following equation: Cell growth percentage=(T−T0)/(C−T0)×100%, wherein T is OD of the test well exposure to Compound; C is OD of the control well without Compound treatment; and T0 is OD at time zero.
A P-glycoprotein overexpressing cell line derived from the human uterine sarcoma cell line MES-SA (i.e., MES-SA/DX5 cells (ATCC)) was seeded by stepwise exposures to increasing concentrations of doxorubicin, in a 96-well plate at 6,500 cells/100 μL media (McCoy's 5A+10% FBS) in each well. The cells were incubated overnight at 37° C. 5% CO2. Compounds were diluted in a separate 96-well plate to yield 11× of final concentration (final Compound concentrations were 0, 5, 20, 80, 320, and 1280 nM and the final docetaxel concentration was 100 nM or the final paclitaxel concentration was 200 nM). DMSO was used as a negative control and known P-glycoprotein inhibitor, encequidar methane sulfonic acid monohydrate (HM30181A), was used as a positive control. 10 μL of the 11× dilutions was added to the appropriate well, P-glycoprotein inhibition wells comprised Compound+docetaxel (or Compound+paclitaxel). The compound toxicity wells comprised 1280 nM Compound+10 μL of culture media. Treated the cells were incubated for 3 days at 37° C. 5% CO2.
To value (reflecting the starting number of cells upon Compound treatment) of 3 wells of cells was determined by performing the following steps 1-4 as described below.
1. 10 μL MTT (5 mg/mL in PBS) was added to each well and incubated for 1.5 hours at 37° C. 5% CO2.
2. Culture media was removed and 100 μL of DMSO was added to each well.
3. The plate was gently shook until all purple MTT formazan crystals were dissolved. OD540 was then measured using microplate reader.
4. Cell growth percentage was calculated with the following equation: Cell growth percentage=(T−T0)/(C−T0)×100%, wherein T is OD of the test well exposure to Compound; C is OD of the control well without Compound treatment; and T0 is OD at time zero.
(Formazan colour is commonly taken as a measure of viable cells.)

Sequence of P-glycoprotein (P08183 whole entry): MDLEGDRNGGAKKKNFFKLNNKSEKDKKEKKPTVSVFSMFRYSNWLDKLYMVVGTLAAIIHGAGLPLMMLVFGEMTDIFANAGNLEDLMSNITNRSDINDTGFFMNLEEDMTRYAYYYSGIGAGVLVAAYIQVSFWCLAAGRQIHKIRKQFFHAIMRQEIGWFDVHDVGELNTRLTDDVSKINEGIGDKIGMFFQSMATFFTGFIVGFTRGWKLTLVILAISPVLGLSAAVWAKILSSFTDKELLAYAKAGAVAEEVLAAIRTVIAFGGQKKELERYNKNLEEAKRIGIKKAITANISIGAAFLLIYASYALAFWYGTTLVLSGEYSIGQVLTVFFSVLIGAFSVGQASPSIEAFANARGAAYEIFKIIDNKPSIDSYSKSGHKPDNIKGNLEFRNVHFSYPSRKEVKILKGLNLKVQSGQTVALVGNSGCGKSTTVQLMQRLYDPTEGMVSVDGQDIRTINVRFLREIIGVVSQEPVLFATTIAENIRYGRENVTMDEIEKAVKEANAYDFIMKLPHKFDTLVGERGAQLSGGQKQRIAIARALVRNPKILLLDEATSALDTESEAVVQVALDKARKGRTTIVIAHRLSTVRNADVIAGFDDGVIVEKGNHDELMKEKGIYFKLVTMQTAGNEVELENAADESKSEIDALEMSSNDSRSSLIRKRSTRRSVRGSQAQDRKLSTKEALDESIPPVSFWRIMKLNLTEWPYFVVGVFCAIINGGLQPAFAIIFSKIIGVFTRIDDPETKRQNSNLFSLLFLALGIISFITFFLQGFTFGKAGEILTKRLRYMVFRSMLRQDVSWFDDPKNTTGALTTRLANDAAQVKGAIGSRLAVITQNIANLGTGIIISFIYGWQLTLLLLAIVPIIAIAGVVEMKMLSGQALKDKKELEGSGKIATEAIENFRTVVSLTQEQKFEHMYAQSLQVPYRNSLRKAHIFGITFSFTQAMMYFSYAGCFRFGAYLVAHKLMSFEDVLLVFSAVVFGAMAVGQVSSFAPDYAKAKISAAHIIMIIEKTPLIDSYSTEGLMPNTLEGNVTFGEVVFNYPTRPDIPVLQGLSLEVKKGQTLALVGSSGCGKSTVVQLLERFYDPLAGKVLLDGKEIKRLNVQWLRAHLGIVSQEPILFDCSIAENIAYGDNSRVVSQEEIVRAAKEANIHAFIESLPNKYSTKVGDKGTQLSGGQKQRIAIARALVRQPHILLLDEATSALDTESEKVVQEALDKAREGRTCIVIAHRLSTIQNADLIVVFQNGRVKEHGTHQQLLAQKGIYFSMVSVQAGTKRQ

`COc1cc(NC(=O)c2cc(=O)c3ccccc3o2)c(-c2nnn(-c3ccc(CCN4CCn5cncc5C4)cc3)n2)cc1OC` [Compound 1, A-(2-(2-(4-(2-(5,6-Dihydroimidazo[1,5-a]pyrazin-7(8H)-yl)ethyl)phenyl)-2H-tetrazol-5-yl)-4,5-dimethoxyphenyl)-4-oxo-4H-chromene-2-carboxamide] yielded an IC50 in data set [1] (human, microsomes, 11 min) above 1000 nM. The EC50 in data set [2] was above 1000 nM. For `COc1cc(NC(=O)c2cnc3ccccc3c2)c(-c2nnn(-c3ccc(CCN4CCc5cnccc5C4)cc3)n2)cc1OC` [Compound 2, N-(2-(2-(4-(2-(3,4-Dihydro-2,6-naphthyridin-2(1H)-yl)ethyl)phenyl)-2H-tetrazol-5-yl)-4,5-dimethoxyphenyl)quinoline-3-carboxamide], the IC50 in data set [1] was 100 to 250 nM. The same molecule displayed an EC50 in data set [2] of 100 to 250 nM. `COc1cc(NC(=O)c2cc(=O)c3ccccc3o2)c(-c2nnn(-c3ccc(CCN(Cc4cccc(-n5ccnc5)c4)Cc4ccc5c(cnn5C)c4)cc3)n2)cc1OC` [Compound 3, N-(2-(2-(4-(2-((3-(1H-Imidazol-1-yl)benzyl)((1-methyl-1H-indazol-5-yl)methyl)amino)ethyl)phenyl)-2H-tetrazol-5-yl)-4,5-dimethoxyphenyl)-4-oxo-4H-chromene-2-carboxamide] showed an IC50 in data set [1] of 500 to 1000 nM. In data set [2], this molecule had an EC50 above 1000 nM.

In data set [1], `COc1cc(NC(=O)c2cnc3ccccc3c2)c(-c2nnn(-c3ccc(CCN(Cc4cccc(-n5ccnc5)c4)Cc4ccc5c(cnn5C)c4)cc3)n2)cc1OC` [Compound 4, N-(2-(2-(4-(2-((3-(1H-Imidazol-1-yl)benzyl)((1-methyl-1H-indazol-5-yl)methyl)amino)ethyl)phenyl)-2H-tetrazol-5-yl)-4,5-dimethoxyphenyl)quinoline-3-carboxamide] yielded an IC50 of 500 to 1000 nM. In data set [2], the EC50 lay in the range of 500 to 1000 nM.

For `COc1cc(NC(=O)c2cc(=O)c3ccc(C)cc3o2)c(-c2nnn(-c3ccc(CCN(Cc4cccc(-n5ccnc5)c4)Cc4ccc5c(cnn5C)c4)cc3)n2)cc1OC` [Compound 5, N-(2-(2-(4-(2-((3-(1H-Imidazol-1-yl)benzyl)((1-methyl-1H-indazol-5-yl)methyl)amino)ethyl)phenyl)-2H-tetrazol-5-yl)-4,5-dimethoxyphenyl)-7-methyl-4-oxo-4H-chromene-2-carboxamide], the IC50 in data set [1] (human, microsomes, 11 min) is above 1000 nM. Besides, the EC50 in data set [2] was above 1000 nM. In data set [1] (human, microsomes, 11 min), `COc1cc(NC(=O)c2cc(=O)c3ccccc3o2)c(-c2nnn(-c3ccc(CCN4CCc5ccncc5C4)cc3)n2)cc1OC` [Compound 6, N-(2-(2-(4-(2-(3,4-Dihydro-2,7-naphthyridin-2(1H)-yl)ethyl)phenyl)-2H-tetrazol-5-yl)-4,5-dimethoxyphenyl)-4-oxo-4H-chromene-2-carboxamide] yielded an IC50 above 1000 nM. Moreover, the EC50 in data set [2] was in the range of 100 to 250 nM. In the case of `COc1cc(NC(=O)c2cc(=O)c3ccccc3o2)c(-c2nnn(-c3ccc(CCN4CCc5cnccc5C4)cc3)n2)cc1OC` [Compound 7, N-(2-(2-(4-(2-(3,4-Dihydro-2,6-naphthyridin-2(1H)-yl)ethyl)phenyl)-2H-tetrazol-5-yl)-4,5-dimethoxyphenyl)-4-oxo-4H-chromene-2-carboxamide], the IC50 in data set [1] was 500 to 1000 nM. This molecule had an EC50 in data set [2] of 100 to 250 nM. `COc1cc(NC(=O)c2cc(=O)c3ccccc3o2)c(-c2nnn(-c3ccc(CCN4CCc5cc(-n6ccnc6)ccc5C4)cc3)n2)cc1OC` [Compound 8, N-(2-(2-(4-(2-(6-(1H-Imidazol-1-yl)-3,4-dihydroisoquinolin-2(1H)-yl)ethyl)phenyl)-2H-tetrazol-5-yl)-4,5-dimethoxyphenyl)-4-oxo-4H-chromene-2-carboxamide] had an IC50 in data set [1] of 100 to 250 nM. Besides, in data set [2], the EC50 is above 1000 nM. In data set [1], `COc1cc(NC(=O)c2cnc3ccccc3n2)c(-c2nnn(-c3ccc(CCN4CCc5cnccc5C4)cc3)n2)cc1OC` [Compound 9, N-(2-(2-(4-(2-(3,4-Dihydro-2,6-naphthyridin-2(1H)-yl)ethyl)phenyl)-2H-tetrazol-5-yl)-4,5-dimethoxyphenyl)quinoxaline-2-carboxamide] showed an IC50 of 500 to 1000 nM. In addition, in data set [2], the half-maximal effective concentration (EC50) was above 1000 nM. The like results for `COc1cc(NC(=O)c2cc(=O)c3ccccc3o2)c(-c2nnn(-c3ccc(CCN4CCc5ccc(-n6ccnc6)cc5C4)cc3)n2)cc1OC` [Compound 10, N-(2-(2-(4-(2-(7-(1H-Imidazol-1-yl)-3,4-dihydroisoquinolin-2(1H)-yl)ethyl)phenyl)-2H-tetrazol-5-yl)-4,5-dimethoxyphenyl)-4-oxo-4H-chromene-2-carboxamide] were, in that order, 250 to 500 nM and above 1000 nM. As to `COc1cc(NC(=O)c2cc(=O)c3ccccc3o2)c(-c2nnn(-c3ccc(CCN4CCc5cnccc5C4)cc3)n2)cc1OCc1ccccc1` [Compound 12, N-(4-(Benzyloxy)-2-(2-(4-(2-(3,4-dihydro-2,6-naphthyridin-2(1H)-yl)ethyl)phenyl)-2H-tetrazol-5-yl)-5-methoxyphenyl)-4-oxo-4H-chromene-2-carboxamide], in data set [1] (human, microsomes, 11 min), the IC50 was above 1000 nM. In addition, the EC50 in data set [2] was below 100 nM. `COc1cc(NC(=O)c2cnc3ccccc3c2)c(-c2nnn(-c3ccc(CCN4CCc5cnccc5C4)cc3)n2)cc1OCc1ccccc1` [Compound 13, N-(4-(Benzyloxy)-2-(2-(4-(2-(3,4-dihydro-2,6-naphthyridin-2(1H)-yl)ethyl)phenyl)-2H-tetrazol-5-yl)-5-methoxyphenyl)quinoline-3-carboxamide] returned an IC50 in data set [1] of 500 to 1000 nM. The molecule also showed an EC50 in data set [2] below 100 nM. In turn, `COc1cc(NC(=O)c2cc(=O)c3ccccc3o2)c(-c2nnn(-c3ccc(CCN4CCc5cc(OC)c(OCCn6ccnc6)cc5C4)cc3)n2)cc1OC` [Compound 14, N-(2-(2-(4-(2-(7-(2-(1H-Imidazol-1-yl)ethoxy)-6-methoxy-3,4-dihydroisoquinolin-2(1H)-yl)ethyl)phenyl)-2H-tetrazol-5-yl)-4,5-dimethoxyphenyl)-4-oxo-4H-chromene-2-carboxamide] displayed an EC50 in data set [2] above 1000 nM. For `COC(=O)c1ccc(-c2nnn(-c3ccc(CCN(C)Cc4ccc5c(cnn5C)c4)cc3)n2)c(NC(=O)c2cc(=O)c3ccccc3o2)c1` [Compound 15, Methyl 4-(2-(4-(2-(methyl((1-methyl-1H-indazol-5-yl)methyl)amino)ethyl)phenyl)-2H-tetrazol-5-yl)-3-(4-oxo-4H-chromene-2-carboxamido)benzoate], in data set [1], the IC50 is above 1000 nM. This molecule displayed an EC50 in data set [2] below 100 nM.

In data set [1] (human, microsomes, 11 min), `COc1cc(NC(=O)c2cnc3ccccc3c2)c(-c2nnn(-c3ccc(CCN4CCc5cnccc5C4)cc3)n2)cc1OCc1ccccc1` [Compound 17, N-(4-(Benzyloxy)-2-(2-(4-(2-(3,4-dihydro-2,6-naphthyridin-2(1H)-yl)ethyl)phenyl)-2H-tetrazol-5-yl)-5-methoxyphenyl)quinoline-3-carboxamide] registered an IC50 of 500 to 1000 nM. The molecule `COc1cc(NC(=O)c2cc(=O)c3ccccc3o2)c(-c2nnn(-c3ccc(CCN4CCn5cncc5C4)cc3)n2)cc1OCc1ccccc1` [Compound 18, N-(4-(Benzyloxy)-2-(2-(4-(2-(5,6-dihydroimidazo[1,5-a]pyrazin-7(8H)-yl)ethyl)phenyl)-2H-tetrazol-5-yl)-5-methoxyphenyl)-4-oxo-4H-chromene-2-carboxamide] registered an IC50 in data set [1] (human, microsomes, 11 min) above 1000 nM. In data set [2], this molecule had an EC50 below 100 nM. As to `COc1cc2c(cc1OC)CN(CCc1ccc(NC(=O)c3cc(OC)c(OC)cc3NC(=O)c3cnc4ccccc4c3)cc1)CC2` [Tariquidar, reference compound], in data set [2], the EC50 is below 100 nM.
